Measured values as given in publication PMC8079033, “Design, synthesis, anticancer evaluation, and molecular modelling studies of novel tolmetin derivatives as potential VEGFR-2 inhibitors and apoptosis inducers” (Journal of Enzyme Inhibition and Medicinal Chemistry, 2021).

What was measured:
A498 = test: NCI 60-cell line one-dose antiproliferative screen (SRB); assay type: cell-based; settings: Homo sapiens, read-out: growth inhibition % (GI%)
Protocol: (§1) Anticancer activity screening of the newly synthesised compounds was measured in vitro utilising 60 different human tumour cell lines provided by US National Cancer Institute according to previously reported standard procedure[41–43] as follows: Cells are inoculated into 96-well microtiter plates in 100 ml. After cell inoculation, the microtiter plates are incubated at 37 °C, 5% CO2, 95% air, and 100% relative humidity for 24 h prior to addition of experimental compounds. After 24 h, two plates of each cell line are fixed in situ with TCA, to represent a measurement of the cell population for each cell line at the time of compound addition (Tz). Experimental compounds are solubilised in dimethyl sulfoxide at 400-fold the desired final maximum test concentration and stored frozen prior to use. At the time of compound addition, an aliquot of frozen concentrate is thawed and diluted to twice the desired final maximum test concentration with a complete medium containing […] gentamicin. Aliquots of […] of the compounds dilutions are added to the appropriate microtiter wells already containing 100 ml of medium, resulting in the required final compound concentration. Following compound addition, the plates are incubated for an additional 48 h at 37 °C, 5% CO2, 95% air, and 100% relative humidity. For adherent cells, the assay is terminated by the addition of cold trichloroacetic acid (TCA). Cells are fixed in situ by the gentle addition of 50 ml of cold 50% (w/v) TCA (final concentration, 10% TCA) and incubated for […] at 4 °C. The supernatant is discarded, and the plates are washed five times with tap water and air-dried. Sulforhodamine B (SRB) solution (100 ml) at 0.4% (w/v) in 1% acetic acid is added to each well, and plates are incubated for 10 min at room temperature. After staining, the unbound dye is removed by washing five times with 1% acetic acid and the plates are air-dried. The bound stain is subsequently solubilised with a 10 mM trizma base, and the absorbance is read on an automated plate reader at a wavelength of 515 nm. For suspension cells, the methodology is the same except that the assay is terminated by fixing settled cells at the bottom of the wells by gently adding 50 ml of 80% TCA (final concentration, 16% TCA). Using the absorbance measurements [time zero, (Tz), control growth, (C), and test growth in the presence of compound (Ti)], the percentage growth is calculated for each compound. The One-dose data are reported as a mean graph of the percent growth of treated cells. The reported number is growth relative to the no-compound control, and relative to the time zero number of cells. This allows the detection of both growth inhibition and lethality.
(§2) Fifteen newly synthesised compounds were tested for their in vitro antiproliferative activity by the National Cancer Institute (NCI), Maryland, USA[50], under the Developmental Therapeutic Program (DTP)[41]^,[43]^,[51]^,[52]. The tested compounds were evaluated at a concentration of 10 µM on a panel of 60 tumour cell lines representing leukaemia and non-small cell lung, colon, CNS, melanoma, ovarian, renal, prostate, and breast cancers. The antiproliferative activity was presented by the NCI as percent growth of the treated cells and is presented in Table 1 as growth inhibition percentage (GI%) achieved by the tested compounds.

A549/ATCC = test: as above; assay type: cell-based; settings: Homo sapiens, read-out: growth inhibition % (GI%)
Protocol: as §1, §2

ACHN = test: as above; assay type: cell-based; settings: Homo sapiens, read-out: growth inhibition % (GI%)
Protocol: as §1, §2

CAKI-1 = test: as above; assay type: cell-based; settings: Homo sapiens, read-out: growth inhibition % (GI%)
Protocol: as §1, §2

EKVX = test: as above; assay type: cell-based; settings: Homo sapiens, read-out: growth inhibition % (GI%)
Protocol: as §1, §2

HCT-116 = test: as above; assay type: cell-based; settings: Homo sapiens, read-out: growth inhibition % (GI%)
Protocol: as §1, §2

HOP-92 = test: as above; assay type: cell-based; settings: Homo sapiens, read-out: growth inhibition % (GI%)
Protocol: as §1, §2

IGROV1 = test: as above; assay type: cell-based; settings: Homo sapiens, IGROV-1, read-out: growth inhibition % (GI%)
Protocol: as §1, §2

K-562 = test: as above; assay type: cell-based; settings: Homo sapiens, K562, read-out: growth inhibition % (GI%)
Protocol: as §1, §2

KM12 = test: as above; assay type: cell-based; settings: Homo sapiens, read-out: growth inhibition % (GI%)
Protocol: as §1, §2

LOX IMVI = test: as above; assay type: cell-based; settings: Homo sapiens, read-out: growth inhibition % (GI%)
Protocol: as §1, §2

M14 = test: as above; assay type: cell-based; settings: Homo sapiens, read-out: growth inhibition % (GI%)
Protocol: as §1, §2

MALME-3M = test: as above; assay type: cell-based; settings: Homo sapiens, read-out: growth inhibition % (GI%)
Protocol: as §1, §2

MCF7 = test: as above; assay type: cell-based; settings: Homo sapiens, read-out: growth inhibition % (GI%)
Protocol: as §1, §2

MDA-MB-231/ATCC = test: as above; assay type: cell-based; settings: Homo sapiens, read-out: growth inhibition % (GI%)
Protocol: as §1, §2

MDA-MB-435 = test: as above; assay type: cell-based; settings: Homo sapiens, read-out: growth inhibition % (GI%)
Protocol: as §1, §2

MDA-MB-468 = test: as above; assay type: cell-based; settings: Homo sapiens, read-out: growth inhibition % (GI%)
Protocol: as §1, §2

NCI-H226 = test: as above; assay type: cell-based; settings: Homo sapiens, read-out: growth inhibition % (GI%)
Protocol: as §1, §2

NCI-H23 = test: as above; assay type: cell-based; settings: Homo sapiens, read-out: growth inhibition % (GI%)
Protocol: as §1, §2

NCI-H322M = test: as above; assay type: cell-based; settings: Homo sapiens, read-out: growth inhibition % (GI%)
Protocol: as §1, §2

NCI-H522 = test: as above; assay type: cell-based; settings: Homo sapiens, read-out: growth inhibition % (GI%)
Protocol: as §1, §2

NCI/ADR-RES = test: as above; assay type: cell-based; settings: Homo sapiens, read-out: growth inhibition % (GI%)
Protocol: as §1, §2

OVCAR-4 = test: as above; assay type: cell-based; settings: Homo sapiens, read-out: growth inhibition % (GI%)
Protocol: as §1, §2

OVCAR-5 = test: as above; assay type: cell-based; settings: Homo sapiens, read-out: growth inhibition % (GI%)
Protocol: as §1, §2

OVCAR-8 = test: as above; assay type: cell-based; settings: Homo sapiens, read-out: growth inhibition % (GI%)
Protocol: as §1, §2

PC-3 = test: as above; assay type: cell-based; settings: Homo sapiens, read-out: growth inhibition % (GI%)
Protocol: as §1, §2

RPMI-8226 = test: as above; assay type: cell-based; settings: Homo sapiens, read-out: growth inhibition % (GI%)
Protocol: as §1, §2

SF-268 = test: as above; assay type: cell-based; settings: Homo sapiens, read-out: growth inhibition % (GI%)
Protocol: as §1, §2

SF-539 = test: as above; assay type: cell-based; settings: Homo sapiens, read-out: growth inhibition % (GI%)
Protocol: as §1, §2

SK-MEL-5 = test: as above; assay type: cell-based; settings: Homo sapiens, read-out: growth inhibition % (GI%)
Protocol: as §1, §2

SN 12 C = test: as above; assay type: cell-based; settings: Homo sapiens, SN12C, read-out: growth inhibition % (GI%)
Protocol: as §1, §2

SNB-19 = test: as above; assay type: cell-based; settings: Homo sapiens, read-out: growth inhibition % (GI%)
Protocol: as §1, §2

SNB-75 = test: as above; assay type: cell-based; settings: Homo sapiens, read-out: growth inhibition % (GI%)
Protocol: as §1, §2

SR = test: as above; assay type: cell-based; settings: Homo sapiens, read-out: growth inhibition % (GI%)
Protocol: as §1, §2

U251 = test: as above; assay type: cell-based; settings: Homo sapiens, U-251, read-out: growth inhibition % (GI%)
Protocol: as §1, §2

UACC-257 = test: as above; assay type: cell-based; settings: Homo sapiens, read-out: growth inhibition % (GI%)
Protocol: as §1, §2

UACC-62 = test: as above; assay type: cell-based; settings: Homo sapiens, read-out: growth inhibition % (GI%)
Protocol: as §1, §2

UO-31 = test: as above; assay type: cell-based; settings: Homo sapiens, read-out: growth inhibition % (GI%)
Protocol: as §1, §2

Question: Which results are given for Cc1ccc(C(=O)c2ccc(CC(=O)NN=C3C(=O)Nc4ccc(Br)cc43)n2C)cc1 [Compound 6b, N′-(5-Bromo-2-oxoindolin-3-ylidene)-2–(1-methyl-5–(4-methylbenzoyl)-1H-pyrrol-2-yl)acetohydrazide]?
Answer: inhibition at 10 µM (A498): 10.2%; inhibition at 10 µM (A549/ATCC): < 10%; inhibition at 10 µM (ACHN): < 10%; inhibition at 10 µM (CAKI-1): 15.4%; inhibition at 10 µM (EKVX): < 10%; inhibition at 10 µM (HCT-116): < 10%; inhibition at 10 µM (HOP-92): < 10%; inhibition at 10 µM (IGROV1): < 10%; inhibition at 10 µM (K-562): 10.6%; inhibition at 10 µM (KM12): < 10%; inhibition at 10 µM (LOX IMVI): 10%; inhibition at 10 µM (M14): < 10%; inhibition at 10 µM (MALME-3M): < 10%; inhibition at 10 µM (MCF7): < 10%; inhibition at 10 µM (MDA-MB-231/ATCC): < 10%; inhibition at 10 µM (MDA-MB-435): < 10%; inhibition at 10 µM (MDA-MB-468): < 10%; inhibition at 10 µM (NCI-H226): < 10%; inhibition at 10 µM (NCI-H23): 13.7%; inhibition at 10 µM (NCI-H322M): < 10%; inhibition at 10 µM (NCI-H522): 13.2%; inhibition at 10 µM (NCI/ADR-RES): < 10%; inhibition at 10 µM (OVCAR-4): 10.1%; inhibition at 10 µM (OVCAR-5): < 10%; inhibition at 10 µM (OVCAR-8): < 10%; inhibition at 10 µM (PC-3): < 10%; inhibition at 10 µM (RPMI-8226): < 10%; inhibition at 10 µM (SF-268): < 10%; inhibition at 10 µM (SF-539): < 10%; inhibition at 10 µM (SK-MEL-5): < 10%; inhibition at 10 µM (SN 12 C): < 10%; inhibition at 10 µM (SNB-19): < 10%; inhibition at 10 µM (SNB-75): 36.3%; inhibition at 10 µM (SR): < 10%; inhibition at 10 µM (U251): 34.4%; inhibition at 10 µM (UACC-257): < 10%; inhibition at 10 µM (UACC-62): < 10%; inhibition at 10 µM (UO-31): 25%; melting point: 195 to 197 °C
